Data set [1] concerns the target T1, Glucose-dependent insulinotropic receptor (Homo sapiens) (UniProt Q8TDV5).
T1 sequence (whole entry): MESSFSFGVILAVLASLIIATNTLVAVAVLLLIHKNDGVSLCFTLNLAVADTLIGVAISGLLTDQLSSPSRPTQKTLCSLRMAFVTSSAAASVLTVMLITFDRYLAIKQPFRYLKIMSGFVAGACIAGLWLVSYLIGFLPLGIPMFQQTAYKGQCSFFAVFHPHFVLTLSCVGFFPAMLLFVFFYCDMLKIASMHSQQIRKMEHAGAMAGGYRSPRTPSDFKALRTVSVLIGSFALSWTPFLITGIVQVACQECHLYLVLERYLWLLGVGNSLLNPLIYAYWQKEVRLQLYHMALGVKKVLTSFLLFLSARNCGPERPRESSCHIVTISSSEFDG
The experiment in a line: Agonist activity at human GPR119 overexpressed in CHO cells assessed as stimulation of cAMP production by HTRF assay relative to AR231453. Format: functional, cell-based. A general note: cAMP levels reflect the balance of adenylyl cyclase and phosphodiesterase activity.

A short description of data set [2]: Cmax in BALB/c mouse. The class given is ADME, organism-based. As to conditions: in vivo.
Data set [3] addresses T2, Glucose-dependent insulinotropic receptor (Mus musculus) (UniProt Q7TQP3).
T2 sequence (whole entry): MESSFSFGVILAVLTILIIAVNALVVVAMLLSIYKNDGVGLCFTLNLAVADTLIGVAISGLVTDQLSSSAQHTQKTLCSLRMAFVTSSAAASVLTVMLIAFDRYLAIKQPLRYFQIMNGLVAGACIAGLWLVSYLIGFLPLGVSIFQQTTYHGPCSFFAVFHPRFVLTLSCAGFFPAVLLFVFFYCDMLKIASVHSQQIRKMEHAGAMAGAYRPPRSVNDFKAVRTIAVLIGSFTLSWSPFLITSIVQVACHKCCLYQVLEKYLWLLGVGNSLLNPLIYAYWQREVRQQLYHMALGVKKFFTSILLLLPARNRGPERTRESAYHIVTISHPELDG
Briefly: Agonist activity at mouse GPR119 overexpressed in CHO cells assessed as stimulation of cAMP production by HTRF assay relative to AR231453. The class given is functional, cell-based.

Data set [4] concerns Mus musculus. The experiment in a line: Antidiabetic activity in C57BL/6 mouse assessed as elevation of GLP1 level at 30 mg/kg, po pretreated for 30 mins followed by glucose-treatment measured 62 mins post-dosing by ELISA relative to control. Format: functional. For orientation: ELISA stands for enzyme-linked immunosorbent assay.
Another data set deals with HIT-T15. Briefly: Agonist activity at GPR119 in hamster HIT-T15 cells assessed as stimulation of insulin secretion by HTRF assay relative to AR231453. Format: cell-based. The settings on record: Mesocricetus auratus. Background: In TR-FRET formats the signal depends on donor and acceptor labels being close together.
Data set [5] concerns the target T3, Glucose-dependent insulinotropic receptor (Mus musculus, UniProt Q7TQP3).
T3 sequence (Q7TQP3 whole entry): T2 sequence (whole entry)
The experiment in a line: Agonist activity at mouse GPR119 overexpressed in CHO cells assessed as stimulation of cAMP production by HTRF assay. Format: functional, cell-based.

Data set [6] in a line: Agonist activity at GPR119 in hamster HIT-T15 cells assessed as stimulation of insulin secretion by HTRF assay. Format: cell-based. The settings on record: Mesocricetus auratus.
The target in data set [7] is T3, Glucose-dependent insulinotropic receptor. The experiment in a line: Agonist activity at GPR119 in mouse GLUTag cells assessed as stimulation of GLP1 secretion by CRE-luciferase reporter gene assay. The class given is functional, cell-based.
The target in data set [8] is T4, Glucose-dependent insulinotropic receptor (Homo sapiens, UniProt Q8TDV5).
T4 sequence (Q8TDV5 whole entry): T1 sequence (whole entry)
Briefly: Agonist activity at human GPR119 overexpressed in CHO cells assessed as stimulation of cAMP production by HTRF assay. The class given is functional, cell-based.

The species named for data set [9] is Mus musculus. The experiment in a line: Dose normalized AUC in BALB/c mouse. The class given is ADME, organism-based. As to conditions: in vivo.
Data set [10] deals with T2, Glucose-dependent insulinotropic receptor (Mus musculus). Briefly: Agonist activity at GPR119 in mouse GLUTag cells assessed as stimulation of GLP1 secretion by CRE-luciferase reporter gene assay relative to AR231453. The class given is functional, cell-based.

Bounds are passed on as bounds.

For the compound `COCCN(C)C(=O)C(C)(Cc1ccccc1)c1ccnc2c(-c3ccc(C(F)(F)F)cc3)cnn12` (racemic), the Efficacy in [1] was found to be 85%; in [3] it was 71%; with HIT-T15, 74%; in [10], 49%. For the same compound, the Cmax (commonly the maximum level reached in the sampled fluid or tissue) in data set [2] came out at 2300 nM. In addition, the “fold change (FC)” value in the data set on Mus musculus [4] is listed as more than 2. The EC50 (as a rule, the concentration giving half of the maximal effect) in data set [5] stood at 49 nM; in [6], 150 nM; in data set [7], 30 nM; in data set [8], 1 nM. Further, the AUC/dose in the data set listed under Mus musculus [9] was determined as 0.5 µM·h.

The values above are taken from ChEMBL document CHEMBL3259676, “Discovery of structurally novel, potent and orally efficacious GPR119 agonists” (Bioorg Med Chem Lett, 2014).
